Assay results taken from patent US20040197407A1, “Methods and dosage forms with modified layer geometry” (priority 2003, published 2004).
Counter-ions that a name gives are not always drawn.

Assays:
[1] = cited from earlier work
[2] = FIG. 6
Text: FIG. 6 illustrates blood plasma concentrations at various times achieved through various means of delivery. This figure illustrates the time necessary to achieve a particular blood plasma concentration.

[3] = in vivo; cited from earlier work
[4] = in vivo; cited from earlier work; remark: listed apart in the source

CN(C)CCC=C1c2ccccc2C=Cc2ccccc21 [Cyclobenzaprine hydrochloride, cyclobenzaprine hydrochloride]
solubility in alcohol ([1]; alcohol): freely soluble | solubility in hydrocarbon solvents ([1]; hydrocarbon solvents): insoluble | solubility in isopropanol ([1]; isopropanol): sparingly soluble | solubility in water ([1]; water): freely soluble

CN(C)CCC=C1c2ccccc2C=Cc2ccccc21 [cyclobenzaprine]
colonic absorption [2]: colonic absorption | half-life [3]: 24 to 72 h | reported side effects [4]: sedation and dry mouth
